Structures can show the parent of a compound that is named as a salt.
Biological target: T1, ΔF508 mutant CFTR (Homo sapiens, UniProt P13569, DEL508-508)
T1 construct: expressed in transfected cells; host or cells: Fischer rat thyroid (FRT) cells
Assay: Fluorescence Assay (halide-sensitive YFP, iodide influx) for ΔF508 mutant CFTR activity
Format: cell-based
Settings: FRT cells expressing ΔF508-CFTR and YFP-H148Q/I152L, incubated 27° C. 20-24 h; forskolin (20 μM) and test compounds (20 μM) for 20 min; rate of fluorescence quenching by I−, normalized to forskolin alone
Excerpt: The ΔF508 mutant CFTR activities of the CFTR modulators are detected using the Fluorescence Assay developed by Pedemonte (Pedemonte N., et al., Antihypertensive 1,4-dihydropyridines as correctors of the cystic fibrosis transmembrane conductance regulator channel gating defect caused by cystic fibrosis mutations, Mol. Pharmacol., 2005, 68, 1736-1746).
Fischer rat thyroid (FRT) cells, stably transfected with ΔF508 were retransfected with the YFP-H148Q/I152L fluorescent protein. The cells were plated (100,000 cells/well) on black 96-well microplates with clear plastic bottom (Corning Life Sciences, Acton, Mass.).
The 96-well microplates containing FRT cells expressing F508-CFTR and the halide-sensitive YFP were incubated at 27° C. for 20 to 24 h to allow rescue of the mutant protein to the plasma membrane. After incubation, cells were washed with PBS (containing 137 mM NaCl, 2.7 mM KCl, 8.1 mM Na2HPO4, 1.5 mM KH2PO4, 1 mM CaCl2, and 0.5 mM MgCl2) and stimulated for 20 min with forskolin (20 μM) and test compounds (20 μM) in a final volume of […] Microplates were then transferred to a microplate reader for CFTR activity determination.

T1 sequence (P13569 with tags, fused parts or gaps DEL508-508): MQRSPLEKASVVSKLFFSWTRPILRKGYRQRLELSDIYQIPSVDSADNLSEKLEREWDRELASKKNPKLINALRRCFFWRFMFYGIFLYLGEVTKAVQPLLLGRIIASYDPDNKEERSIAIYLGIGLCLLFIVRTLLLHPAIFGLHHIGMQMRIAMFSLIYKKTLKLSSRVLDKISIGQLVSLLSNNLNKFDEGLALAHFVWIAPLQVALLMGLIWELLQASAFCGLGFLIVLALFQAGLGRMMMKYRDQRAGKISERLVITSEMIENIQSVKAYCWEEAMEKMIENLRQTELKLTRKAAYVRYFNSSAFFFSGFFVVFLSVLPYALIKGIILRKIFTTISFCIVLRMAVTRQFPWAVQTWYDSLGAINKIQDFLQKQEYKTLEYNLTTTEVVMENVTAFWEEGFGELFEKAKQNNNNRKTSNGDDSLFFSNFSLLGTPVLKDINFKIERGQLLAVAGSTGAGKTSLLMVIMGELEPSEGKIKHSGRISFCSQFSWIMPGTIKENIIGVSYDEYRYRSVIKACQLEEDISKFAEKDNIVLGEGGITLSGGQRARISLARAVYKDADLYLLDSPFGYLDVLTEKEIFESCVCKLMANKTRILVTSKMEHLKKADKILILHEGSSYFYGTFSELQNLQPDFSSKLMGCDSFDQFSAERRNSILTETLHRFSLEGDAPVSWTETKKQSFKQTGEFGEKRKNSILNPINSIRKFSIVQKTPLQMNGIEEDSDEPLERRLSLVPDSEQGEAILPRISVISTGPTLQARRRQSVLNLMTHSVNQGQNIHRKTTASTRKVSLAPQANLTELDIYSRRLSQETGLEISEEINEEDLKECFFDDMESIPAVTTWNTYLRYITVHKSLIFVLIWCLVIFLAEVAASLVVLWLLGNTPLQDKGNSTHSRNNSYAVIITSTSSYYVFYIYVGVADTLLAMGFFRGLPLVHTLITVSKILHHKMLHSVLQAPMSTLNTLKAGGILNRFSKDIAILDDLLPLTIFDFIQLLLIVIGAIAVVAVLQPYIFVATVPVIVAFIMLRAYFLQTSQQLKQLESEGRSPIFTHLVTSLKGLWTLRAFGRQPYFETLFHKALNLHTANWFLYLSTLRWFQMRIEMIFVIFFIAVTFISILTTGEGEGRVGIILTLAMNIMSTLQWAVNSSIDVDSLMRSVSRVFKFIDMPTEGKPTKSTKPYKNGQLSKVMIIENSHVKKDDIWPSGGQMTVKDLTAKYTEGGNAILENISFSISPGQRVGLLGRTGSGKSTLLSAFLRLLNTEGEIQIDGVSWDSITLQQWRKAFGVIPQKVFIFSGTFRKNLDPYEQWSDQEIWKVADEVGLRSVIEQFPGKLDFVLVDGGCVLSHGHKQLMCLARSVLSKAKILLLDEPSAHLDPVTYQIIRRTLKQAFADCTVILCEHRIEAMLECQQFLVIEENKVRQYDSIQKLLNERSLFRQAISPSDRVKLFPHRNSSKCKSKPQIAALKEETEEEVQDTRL

| SMILES | CFTR Activity |
| --- | --- |
| Cl.NCCCCOc1sncc1NC(=O)c1ccc(F)c(-c2c(F)cccc2F)n1 [Example 15, N-(5-(4-aminobutoxy)isothiazol-4-yl)-6-(2,6-difluorophenyl)-5-fluoropicolinamide hydrochloride] | 0.7 |
| CNCCCCOc1sncc1NC(=O)c1ccc(F)c(-c2c(F)cccc2F)n1.Cl [Example 16, 6-(2,6-difluorophenyl)-5-fluoro-N-(5-(4-(methylamino)butoxy)isothiazol-4-yl)picolinamide hydrochloride] | 0.5 |
| CC(O)CCOc1sncc1NC(=O)c1ccc(F)c(-c2c(F)cccc2F)n1 (centres unmarked) [Example 18, 6-(2,6-difluorophenyl)-5-fluoro-N-(5-(3-hydroxybutoxy)isothiazol-4-yl)picolinamide] | 0.12 |
| O=C(Nc1cnsc1OCCCCO)c1ccc(F)c(-c2c(F)cccc2F)n1 [Example 19, 6-(2,6-difluorophenyl)-5-fluoro-N-(5-(4-hydroxybutoxy)isothiazol-4-yl)picolinamide] | 0.1 |
| O=C(Nc1cnsc1OCCC(O)CO)c1ccc(F)c(-c2c(F)cccc2F)n1 (centres unmarked) [Example 21, 6-(2,6-difluorophenyl)-N-(5-(3,4-dihydroxybutoxy)isothiazol-4-yl)-5-fluoropicolinamide] | 0.5 |
| Cl.Nc1cc(F)c(-c2c(F)cccc2F)nc1C(=O)Nc1cnsc1OCC1CCNCC1 [Example 23, 3-amino-6-(2,6-difluorophenyl)-5-fluoro-N-(5-(piperidin-4-ylmethoxy)isothiazol-4-yl)picolinamide hydrochloride] | 2.2 |
| Cl.Nc1cc(F)c(-c2c(F)cccc2F)nc1C(=O)Nc1cnsc1OC1CCNC1 (centres unmarked) [Example 24, 3-amino-6-(2,6-difluorophenyl)-5-fluoro-N-(5-(pyrrolidin-3-yloxy)isothiazol-4-yl)picolinamide hydrochloride] | 1.9 |
| Cl.Nc1cc(F)c(-c2c(F)cccc2F)nc1C(=O)Nc1cnsc1OC1CCNCC1 [Example 25, 3-amino-6-(2,6-difluorophenyl)-5-fluoro-N-(5-(piperidin-4-yloxy)isothiazol-4-yl)picolinamide hydrochloride] | 2.5 |
| Cl.Nc1cc(F)c(-c2c(F)cccc2F)nc1C(=O)Nc1cnsc1OC1CCCNCC1 (centres unmarked) [Example 26, 3-amino-N-(5-(azepan-4-yloxy)isothiazol-4-yl)-6-(2,6-difluorophenyl)-5-fluoropicolinamide hydrochloride] | 3.1 |
| Cl.Nc1cc(F)c(-c2c(F)cccc2F)nc1C(=O)Nc1cnsc1O[C@H]1CC[C@H](N)CC1 [Example 27, 3-amino-N-(5-(((1r,4r)-4-aminocyclohexyl)oxy)isothiazol-4-yl)-6-(2,6-difluorophenyl)-5-fluoropicolinamide hydrochloride] | 2.8 |
| Cl.Nc1cc(F)c(-c2c(F)cccc2F)nc1C(=O)Nc1cnsc1OCC1CCNC1 (centres unmarked) [Example 28, 3-amino-6-(2,6-difluorophenyl)-5-fluoro-N-(5-(pyrrolidin-3-ylmethoxy)isothiazol-4-yl)picolinamide hydrochloride] | 1.7 |
| NCC(CCl)Oc1sncc1NC(=O)c1ccc(F)c(-c2c(F)cccc2F)n1 (centres unmarked) [Example 29, N-(5-((1-amino-3-chloropropan-2-yl)oxy)isothiazol-4-yl)-6-(2,6-difluorophenyl)-5-fluoropicolinamide hydrochloride] | 1.4 |
| Cl.Nc1cc(F)c(-c2c(F)cccc2F)nc1C(=O)Nc1cnsc1OC1CNC1 [Example 31, 3-amino-N-(5-(azetidin-3-yloxy)isothiazol-4-yl)-6-(2,6-difluorophenyl)-5-fluoropicolinamide hydrochloride] | 0.1 |
| Cl.Nc1cc(F)c(-c2c(F)cccc2F)nc1C(=O)Nc1cnsc1OCC1CNC1 [Example 32, 3-amino-N-(5-(azetidin-3-ylmethoxy)isothiazol-4-yl)-6-(2,6-difluorophenyl)-5-fluoropicolinamide hydrochloride] | 0.3 |

The remaining lines, values ahead:

| CFTR Activity | SMILES |
| --- | --- |
| 0.9 | Cl.O=C(Nc1cnsc1OCC1CCNCC1)c1ccc(F)c(-c2c(F)cccc2F)n1 [Example 1, 6-(2,6-difluorophenyl)-5-fluoro-N-(5-(piperidin-4-ylmethoxy)isothiazol-4-yl)picolinamide hydrochloride] |
| 0.2 | Cl.O=C(Nc1cnsc1OCC1CNC1)c1ccc(F)c(-c2c(F)cccc2F)n1 [Example 2, N-(5-(azetidin-3-ylmethoxy)isothiazol-4-yl)-6-(2,6-difluorophenyl)-5-fluoropicolinamide hydrochloride] |
| 1.3 | Cl.O=C(Nc1cnsc1OC1CCNCC1)c1ccc(F)c(-c2c(F)cccc2F)n1 [Example 3, 6-(2,6-difluorophenyl)-5-fluoro-N-(5-(piperidin-4-yloxy)isothiazol-4-yl)picolinamide hydrochloride] |
| 0.8 | Cl.O=C(Nc1cnsc1OC1CCNC1)c1ccc(F)c(-c2c(F)cccc2F)n1 (centres unmarked) [Example 4, 6-(2,6-difluorophenyl)-5-fluoro-N-(5-(pyrrolidin-3-yloxy)isothiazol-4-yl)picolinamide hydrochloride] |
| 0.5 | Cl.O=C(Nc1cnsc1OC1CCCNC1)c1ccc(F)c(-c2c(F)cccc2F)n1 (centres unmarked) [Example 5, 6-(2,6-difluorophenyl)-5-fluoro-N-(5-(piperidin-3-yloxy)isothiazol-4-yl)picolinamide hydrochloride] |
| 1.4 | Cl.O=C(Nc1cnsc1OC1CCCNCC1)c1ccc(F)c(-c2c(F)cccc2F)n1 (centres unmarked) [Example 6, N-(5-(azepan-4-yloxy)isothiazol-4-yl)-6-(2,6-difluorophenyl)-5-fluoropicolinamide hydrochloride] |
| 0.9 | Cl.O=C(Nc1cnsc1OCC1CCCNC1)c1ccc(F)c(-c2c(F)cccc2F)n1 (centres unmarked) [Example 7, 6-(2,6-difluorophenyl)-5-fluoro-N-(5-(piperidin-3-ylmethoxy)isothiazol-4-yl)picolinamide hydrochloride] |
| 0.7 | Cl.O=C(Nc1cnsc1OCC1CCNC1)c1ccc(F)c(-c2c(F)cccc2F)n1 (centres unmarked) [Example 8, 6-(2,6-difluorophenyl)-5-fluoro-N-(5-(pyrrolidin-3-ylmethoxy)isothiazol-4-yl)picolinamide hydrochloride] |
| 0.1 | Cl.O=C(Nc1cnsc1OC1CNC1)c1ccc(F)c(-c2c(F)cccc2F)n1 [Example 9, N-(5-(azetidin-3-yloxy)isothiazol-4-yl)-6-(2,6-difluorophenyl)-5-fluoropicolinamide hydrochloride] |
| 1 | Cl.N[C@H]1CC[C@H](Oc2sncc2NC(=O)c2ccc(F)c(-c3c(F)cccc3F)n2)CC1 [Example 10, N-(5-(((1r,4r)-4-aminocyclohexyl)oxy)isothiazol-4-yl)-6-(2,6-difluorophenyl)-5-fluoropicolinamide hydrochloride] |
| 1.1 | Cl.NC1CCCC(Oc2sncc2NC(=O)c2ccc(F)c(-c3c(F)cccc3F)n2)C1 (centres unmarked) [Example 11, N-(5-((3-aminocyclohexyl)oxy)isothiazol-4-yl)-6-(2,6-difluorophenyl)-5-fluoropicolinamide hydrochloride] |
| 0.7 | Cl.NCCCOc1sncc1NC(=O)c1ccc(F)c(-c2c(F)cccc2F)n1 [Example 12, N-(5-(3-aminopropoxy)isothiazol-4-yl)-6-(2,6-difluorophenyl)-5-fluoropicolinamide hydrochloride] |
| 0.5 | CNCCCOc1sncc1NC(=O)c1ccc(F)c(-c2c(F)cccc2F)n1.Cl [Example 13, 6-(2,6-difluorophenyl)-5-fluoro-N-(5-(3-(methylamino)propoxy)isothiazol-4-yl)picolinamide hydrochloride] |
| 0.3 | CN(C)CCCOc1sncc1NC(=O)c1ccc(F)c(-c2c(F)cccc2F)n1.Cl [Example 14, 6-(2,6-difluorophenyl)-N-(5-(3-(dimethylamino)propoxy)isothiazol-4-yl)-5-fluoropicolinamide hydrochloride] |
| 0.1 | O=C(Nc1cnsc1OCCCO)c1ccc(F)c(-c2c(F)cccc2F)n1 [Example 17, 6-(2,6-difluorophenyl)-5-fluoro-N-(5-(3-hydroxypropoxy)isothiazol-4-yl)picolinamide] |
| 0.1 | CC(C)(O)CCCOc1sncc1NC(=O)c1ccc(F)c(-c2c(F)cccc2F)n1 [Example 20, 6-(2,6-difluorophenyl)-5-fluoro-N-(5-((4-hydroxy-4-methylpentyl)oxy)isothiazol-4-yl)picolinamide] |
| 0.3 | O=C(Nc1cnsc1OCC1CCOCC1)c1ccc(F)c(-c2c(F)cccc2F)n1 [Example 22, 6-(2,6-difluorophenyl)-5-fluoro-N-(5-((tetrahydro-2H-pyran-4-yl)methoxy)isothiazol-4-yl)picolinamide] |
| 1.4 | Cl.NCC(CCl)COc1sncc1NC(=O)c1ccc(F)c(-c2c(F)cccc2F)n1 (centres unmarked) [Example 30, N-(5-(3-amino-2-(chloromethyl)propoxy)isothiazol-4-yl)-6-(2,6-difluorophenyl)-5-fluoropicolinamide hydrochloride] |

— patent publication US9890149B2 (NuBridge BioSciences, priority 2015, dated 2018)
